System: human BCL11A erythroid enhancer
Test: Tiled pooled CRISPR-Cas9 screen for in situ functional mapping of the human BCL11A erythroid enhancer (HbF-high/HbF-low sort, sgRNA deep sequencing)
Assay type: cell-based
Conditions: for Enrichment Score: HbF enrichment, human library NGG and NGG RC sgRNAs filtered for enrichment score >0.259; for Dropout Score: human library sgRNAs that produced HbF enrichment over 0.259
Source text: Every 20-mer sequence upstream of an NGG or NAG PAM sequence on the sense or anti-sense strand was identified for both the human and mouse orthologous +55, +58, and +62 DNase hypersensitive site (DHS) as well as BCL11A/BCL11a exon 2. Relative to the human hg 19 reference genome, a reference was used with the following substitutions to approximate a common low-HbF associated haplotype: rs1427407-G, rs1896293-T, rs6706648-T, rs6738440-G, rs7606173-C. Each of the sgRNA oligos were synthesized as previously described (37,41,64) and cloned using a Gibson Assembly master mix (New England Biolabs) into lentiGuide-Puro (Addgene plasmid ID 52963) BsmBI digested, PCR purified, and dephosphorylated. Gibson Assembly products were transformed to electrocompetent E. cloni cells (Lucigen). Sufficient colonies were isolated to ensure 90X library coverage for both human and mouse libraries. Plasmid libraries were deep sequenced (described below) to confirm representation.
Tiled Pooled CRISPR-Cas9 Screen for In Situ Functional Mapping the Human BCL11A Erythroid Enhancer.
HUDEP clone 2 (HUDEP-2) was utilized as previously described by from Nakamura and colleagues (49). HUDEP-2 cells were expanded in StemSpan SFEM (Stem Cell Technologies) supplemented with 10^−6 M dexamethasone (Sigma), 100 ng/mL human stem cell factor (SCF) (R&D), 3 IU/mL erythropoietin (Amgen), 1% L-glutamine (Life Technologies), and 2% penicillin/streptomycin (Life Technologies). 1 μg/mL doxycycline (Sigma) was included in the culture to induce expression of the human papilloma virus type 16 E6/E7 genes (49). HUDEP-2 cells were differentiated in Iscove's Modified Dulbecco's Medium (IMDM) supplemented with 330 μg/mL halo-transferrin (Sigma), 10 μg/mL recombinant human insulin (Sigma), 2 IU/mL heparin (Sigma), 5% human solvent detergent pooled plasma AB (Rhode Island Blood Center), 3 IU/mL erythropoietin (Amgen), 100 ng/mL human stem cell factor (SCF) (R&D), 1 μg/mL doxycycline (Sigma), 1% L-glutamine (Life Technologies), and 2% penicillin/streptomycin (Life Technologies).
HUDEP-2 cells with stable Cas9 expression were transduced at low multiplicity with the human sgRNA library lentivirus pool while in expansion medium. […] Cell numbers were maintained throughout the experiment at levels adequate to exceed 1000× representation of the library. 10 μg/mL blasticidin (Sigma) and 1 μg/mL puromycin (Sigma) were added 24 hours after transduction to select for lentiviral library integrants in cells with Cas9. Cells were cultured in expansion media for one week followed by differentiation media for an additional week.
Intracellular staining was performed by fixing cells with 0.05% glutaraldehyde (grade II) (Sigma) for 10 minutes at room temperature. Cells were centrifuged for 5 minutes at 350 g and then resuspended in 0.1% Triton-X100 (Life Technologies) for 5 minutes at room temperature for permeabilization. Triton X-100 was diluted with phosphate buffered saline (PBS) and then centrifuged at 350 g for 15 minutes. Cells were stained with anti-human antibodies for HbF (clone HbF-1 with FITC or APC conjugation; Life Technologies) and B-hemoglobin antibody (clone 37-8 with PerCP-Cy5 or PE conjugation; Santa Cruz) for 20 minutes in the dark. Cells were washed to remove unbound antibody prior to FACS analysis. 0.2 μg HbF and 2 μg of HbA CB-hemoglobin) antibodies were used per 5 million cells. Control cells exposed to a nontargeting sgRNA sample and BCL11A exon 2 were used as negative and positive controls respectively to establish flow cytometry conditions. Populations of cells with the top and bottom 10% of expression of HbF were sorted by FACS.
After sorting the HbF-high and HbF-low pools, library preparation and deep sequencing was performed as previously described (37). Briefly, genomic DNA was extracted using the Qiagen Blood and Tissue kit. […]

Substance | Enrichment Score | Dropout Score
BCL_01637_H_D58 (guide CCATCGGTGGCCGTTTGCCCNGGRC; listed as DNA, chemistry not given here) | 0.669 | −0.5016
BCL_00008_H_D55 (guide TGAAACCAAGCTTCCTCTGCNGG; listed as DNA, chemistry not given here) | 0.2741 | −0.2303
BCL_00227_H_D62 (guide ATCCCAGCACTTTGGGAGGCNGG; listed as DNA, chemistry not given here) | 0.79 | −8.099
BCL_00130_H_D58 (guide GGAGTATGGGGAGAGAAGAGNGG; listed as DNA, chemistry not given here) | 0.3752 | −2.212
BCL_01788_H_D62 (guide GAGATTTACTCTTGTTGCCCNGGRC; listed as DNA, chemistry not given here) | 1.29 | −5.463
BCL_01631_H_D58 (guide ATTAGGGTGGGGGCGTGGGTNGGRC; listed as DNA, chemistry not given here) | 0.4098 | −0.1615
BCL_00184_H_D58 (guide CCTGGGCAAACGGCCACCGANGG; listed as DNA, chemistry not given here) | 0.3155 | −0.5414
BCL_00091_H_D55 (guide CCCACTTCCCTTCCTAGAATNGG; listed as DNA, chemistry not given here) | 1.168 | −0.5042
BCL_01640_H_D58 (guide TCGGTGGCCGTTTGCCCAGGNGGRC; listed as DNA, chemistry not given here) | 0.3658 | −1.013
BCL_01834_H_D62 (guide TATCAGAAGGGAACTGTTTGNGGRC; listed as DNA, chemistry not given here) | 0.4029 | 0.02327
BCL_01833_H_D62 (guide AGTTCAAGTAGATATCAGAANGGRC; listed as DNA, chemistry not given here) | 0.6116 | 0.2289
BCL_01634_H_D58 (guide TGGGTGGGGTAGAAGAGGACNGGRC; listed as DNA, chemistry not given here) | 0.4147 | −1.078
BCL_01831_H_D62 (guide GGGTGGCTGTTTAAAGAGGGNGGRC; listed as DNA, chemistry not given here) | 0.4104 | −0.1486
BCL_00252_H_exon2 (guide GCCCGTTGGGAGCTCCAGAANGG; listed as DNA, chemistry not given here) | 0.5453 | 0.09212
BCL_00248_H_exon2 (guide ACAGATGATGAACCAGACCANGG; listed as DNA, chemistry not given here) | 1.609 | −2.532
BCL_01428_H_D55 (guide GAATGTCCCAGGCCAATTCTNGGRC; listed as DNA, chemistry not given here) | 0.4299 | −0.5435
BCL_01989_H_exon2 (guide CTGCTATGTGTTCCTGTTTGNGGRC; listed as DNA, chemistry not given here) | 0.6201 | 0.0332
BCL_01625_H_D58 (guide GTTTGGCCTCTGATTAGGGTNGGRC; listed as DNA, chemistry not given here) | 0.3718 | −0.9451
BCL_01623_H_D58 (guide AAGGGTTTGGCCTCTGATTANGGRC; listed as DNA, chemistry not given here) | 1.285 | −0.2669

Substance | Enrichment Score | Dropout Score
BCL_00210_H_D62 (guide TAAACAGCCACCCCACACCCNGG; listed as DNA, chemistry not given here) | 0.7026 | −0.8705
BCL_01994_H_exon2 (guide GATGCCAACCTCCACGGGATNGGRC; listed as DNA, chemistry not given here) | 1.11 | −0.9904
BCL_00245_H_D62 (guide GGAGATCGCTTGAACCTGGGNGG; listed as DNA, chemistry not given here) | 0.4762 | −5.067
BCL_01449_H_D55 (guide GTGCTTGGTCGGCACTGATANGGRC; listed as DNA, chemistry not given here) | 1.134 | −0.6101
BCL_02008_H_exon2 (guide AGGAGGTCATGATCCCCTTCNGGRC; listed as DNA, chemistry not given here) | 0.3495 | −0.4482
BCL_00253_H_exon2 (guide CCCGTTGGGAGCTCCAGAAGNGG; listed as DNA, chemistry not given here) | 1.205 | −1.968
BCL_00092_H_D55 (guide TTCCCTTCCTAGAATTGGCCNGG; listed as DNA, chemistry not given here) | 0.4035 | −0.4369
BCL_02007_H_exon2 (guide GGCACTGCCCACAGGTGAGGNGGRC; listed as DNA, chemistry not given here) | 3.351 | −1.662
BCL_00086_H_D55 (guide CTCCAAGCATTGCATCATCCNGG; listed as DNA, chemistry not given here) | 0.6343 | −0.2703
BCL_00240_H_D62 (guide TGTAATCTCAGCTACTCGGGNGG; listed as DNA, chemistry not given here) | 0.79 | −8.691
BCL_02000_H_exon2 (guide TCGATTGGTGAAGGGGAAGGNGGRC; listed as DNA, chemistry not given here) | 0.4624 | −1.365
BCL_00250_H_exon2 (guide GAACCAGACCACGGCCCGTTNGG; listed as DNA, chemistry not given here) | 1.581 | −0.6847
BCL_00027_H_D55 (guide CCCATGGAGGTGGGGAGATGNGG; listed as DNA, chemistry not given here) | 0.2823 | −0.4562
BCL_01629_H_D58 (guide TCTGATTAGGGTGGGGGCGTNGGRC; listed as DNA, chemistry not given here) | 1.104 | 0.1807
BCL_01829_H_D62 (guide TGTGGGGTGGCTGTTTAAAGNGGRC; listed as DNA, chemistry not given here) | 0.496 | −0.1469
BCL_01483_H_D55 (guide GTCATCCTCGGCCAATGAAGNGGRC; listed as DNA, chemistry not given here) | 0.4318 | −0.4056
BCL_00259_H_exon2 (guide CCAGATGAACTTCCCATTGGNGG; listed as DNA, chemistry not given here) | 3.266 | −3.321
BCL_01627_H_D58 (guide TTGGCCTCTGATTAGGGTGGNGGRC; listed as DNA, chemistry not given here) | 0.3054 | −0.2564

— patent publication US12497610B2, “Functional genomics using CRISPR-CAS systems for saturating mutagenesis of non-coding elements, compositions, methods, libraries and applications thereof” (THE BROAD INSTITUTE, INC., priority 2015, dated 2025)
